Measured values from US11649268B2, “Fibronectin-binding peptides for use in tumor or fibrosis diagnosis and therapy” (priority 2016, dated 2023).
“Also recorded” adds a separate entry of the source. Like-named read-outs stand apart in the source and are kept apart here. Where a SMILES comes first, the peptide text is derived from it. Primed or numbered codes have the meaning given here. Where no end group is shown, it is not given here. The star is where a group is joined. X1 = O=C(O)CN1CCN(CC(=O)O)CCN(C(CCC(=O)NCCN2C(=O)CC(*)C2=O)C(=O)O)CC1; NODAGA′ = NODAGA chelator (maleimide-conjugated) for radiolabelling; Alexa 488 = Alexa Fluor 488 fluorescent dye

Experiments:
[1] = Method: To assess in vitro plasma stability 12 MBq ^111In-[FnBPA5-NODAGA] and ^111In-[scraFnBPA5-NODAGA] were incubated with 400 μL human blood plasma at 37° C. At different time points (0, 0.25, 0.5, 1, 2, 48 and 72 hours) 40 μL of plasma was taken out and precipitated by the addition of 200 μL EtOH, acetonitrile, 0.1% TFA.
[2] = tested on: PC-3 xenografts
Method: (§1) PC-3 cells (human prostate carcinoma cell line, ACC-465, DSMZ, Braunschweig, Germany) were cultured in Roswell Park Memorial Institute 1640 medium (Amimed, Bioconcept, Switzerland). Cells were cultured as monolayers at 37° C. in a humidified atmosphere containing 5% CO2.
(§2) In vivo experiments were approved by the local veterinarian department and conducted in accordance with the Swiss law for animal protection. The 3-5 weeks-old female CD1 nude mice were purchased from Charles River (Germany). After 5-7 days acclimatisation period, the tumor cells were subcutaneously inoculated in both shoulders of the mice (3*106-1*107 cells in 100-150 μL PBS per side). Experiments were performed 3-4 weeks after inoculation.
SPECT/CT experiments were performed using a 4-head multiplexing multipinhole camera (NanoSPECT/CTplus, Bioscan Inc., Washington D.C., USA). CT scans were performed with a tube voltage of 45 kV and a tube current of […]. SPECT scans at 24, 72 and 96 hours post injection were obtained with an acquisition time of 20-90 sec. per view resulting in a total scanning time of 20-45 min per mouse.
The distribution of ^111In-radiolabeled FnBPA5 peptide injected into the tail vein of a living mouse was monitored by means of SPECT/CT for a period of 96 hours. […] (2.4 nmol, 100 μL PBS) into the tail vein. […] SPECT images were reconstructed using HiSPECT software (Scivis GmbH, Goettingen, Germany). The images were reconstituted and processed with InVivoScope® software (BioscanInc., Washington D.C., USA) and zoom in videos were generated using Adobe Flash.
To visualize additional binding of the tracer to tissues throughout the body, the kidneys were subsequently removed from the sacrificed mice and the scan was repeated.

[3] = in vivo; conditions: female, CD1 nude, mouse, iv, 150 kBq, total radioactivity
Method: as §1, §2
(§3) The tissue-specific peptide pharmacokinetics, particularly in cancer stroma, were assessed in groups of 4 PC-3-bearing mice that were injected with approximately 150 kBq ^111In-FnBPA5 respectively ^111In-scraFnBPA5 (2.4 nmol/[…] PBS) into the tail vein and biodistribution of peptides was analyzed at different time points (1, 4, 24 and 96 hours post injection (p.i. and after sacrification)) by means of percentage of injected activity per gram tissue (% IA/g).

[4] = tested on: PC-3 xenografts; assay: In vivo blocking study with pre-injected unlabeled FnBPA5; set-up: species or system mouse; conditions: for effect of pre-injection of unlabeled FnBPA5 on accumulation: approximately 10-fold excess unlabeled FnBPA5, 4 hour post-injection
Method: (A) Biodistribution of FnBPA5 in PC-3 bearing mice was monitored at different time points in various organs. […] (C) Blocking studies were performed and uptake was analyzed 4 hour post-injection.
as §3

[5] = target: soluble plasma Fn; assay: Fluorescence anisotropy titration (fluorescence polarization); type: binding, human; conditions: 100 nM Alexa-488 peptide in PBS, Fn 0 to 1.4 μM, 20° C.; read-out: dissociation constant Kd to soluble plasma Fn
Method: The binding affinities of Fn to FnBPA5 were determined in three independent measurements by anisotropy titrations in a Cary Eclipse Fluorescence Spectrophotometer (Agilent Technologies) equipped with automated polarizers. FnBPA5 and its scrambled derivative were synthesized with an N-terminal Alexa-488 dye. The anisotropy of 100 nM Alexa-488 labelled peptide was measured in PBS at Fn concentrations ranging from 0 to 1.4 μM. Excitation and emission were at λex 480 nm and λem 520 nm respectively with both slit 10 nm, 20° C., 5 s signal acquisition and g=1.4. The Kd values were determined by fitting the data to a one-site-binding model using Origin 7 (OriginLab Northampton, Mass., USA).
With higher Fn concentration an increasing amount of peptide is bound to Fn leading to a shift in fluorescence anisotropy.

[6] = tested on: manually pulled relaxed Fn fibers (fibrillar Fn); assay: Manually pulled Fn fiber binding assay (confocal microscopy); set-up: species or system human; conditions: for binding to manually pulled Fn fibers (peptide signal): confocal microscopy, peptide signal vs Fn-Cy5
Text: Manually pulled Fn fibers were used as a model system for fibrillar Fn as described previously (W. C. Little, M. L. Smith, U. Ebneter, and V. Vogel, “Assay to mechanically tune and optically probe fibrillar fibronectin conformations from fully relaxed to breakage,” Matrix Biology, vol. 27, no. 5, pp. 451-461, June 2008). Fibers containing 5% of photolabeled Fn-Cy5 were deposited onto a stretchable silicone sheet, relaxed to half of their original length, corresponding to a total 7% molecular strain and after a blocking step with 4% bovine serum albumin in PBS, they were incubated with different concentrations of Alexa488 fluorescently labeled FnBPA5 to obtain a binding curve.
Manually pulled Fn fiber samples were imaged with an Olympus FV1000 confocal microscope using a 40× water immersion objective with a numerical aperture of 0.9. Alexa488-FnBPA5 and Fn-Cy5 channels were imaged with a 512×512 pixel resolution and photomultiplier tube voltage and laser powers were kept constant within an experiment.
Images were analyzed using Fiji-ImageJ and Matlab (MathWorks, Natick, Mass., USA). […] Dark current values were subtracted from images and pixels with intensities below a cutoff threshold and at saturation were excluded from analysis. Approximately 10 fibers were imaged per experimental condition and each of these conditions was done in triplicate. […] Data points were fit using the Hill model assuming non-cooperative binding (using the below equation) and plot using Origin.
To assess binding constant of Alexa488-FnBPA5 and of its scrambled analogue to Fn fibers a fiber stretch assay as described above and before (Little et al., Matrix Biology, vol. 27, no. 5, pp. 451-461, June 2008) was used. Fn fibers are manually pulled from a Fn solution containing 5% fluorophore labeled Fn and deposited onto a silicone membrane. Silicone membranes can then be stretched or relaxed to desired mechanical strain state.
Peptide fluorescence intensity normalized against the Cy5-intensity from the Fn-fibers for different peptide concentrations was assessed. Intensity ratio of 10 μM FnBPA5-488 was defined as saturated and all other intensity ratios were normalized with this factor.

[7] = tested on: fibrillar Fn in fibroblast ECM; assay: Binding to fibrillar Fn in fibroblast-assembled ECM (colocalization); type: cell-based; conditions: normal human dermal fibroblasts, 2 days ECM, 5 μg/ml peptide, 1 hour
Method: Fibroblast ECM samples (FIG. 2C) were acquired with the same microscope using an oil immersion 1.45 NA 60× objective with a pixel resolution of 1024×1024.
To achieve this, normal human dermal fibroblasts (PromoCell, Heidelberg, Germany) were cultured in alpha minimum essential medium (α-MEM) with 10% fetal bovine serum (FBS) from BioWest, Nuaillé, France, and split before reaching confluence. Cells were seeded onto Fn-coated 8-well chambered coverglasses (Lab-Tek, Nalgene Nunc, Thermo Scientific, Waltham, Mass., USA) at a density of 30×10^3 cells per cm^2 and allowed to attach to the surface before medium exchange to medium containing 50 μg/ml unlabeled Fn. Cells were cultured for 48 hours. Fibronectin was then stained using a rabbit polyclonal anti-fibronectin antibody (ab23750, abcam, Cambridge, UK) and 5 μg/ml FnBPA5-Alexa488 respectively scr-FnBPA5-Alexa488 peptide for 1 hour before fixation with a 4% paraformaldehyde solution in PBS. After fixation cells were permeabilized for 10 minutes with PBS containing 0.01% Triton X-100. After a washing step samples were blocked in 4% BSA and 4% donkey serum for 1 hour at room temperature. Samples were then incubated for 1 hour with a donkey anti-rabbit Alexa 546 (Invitrogen) secondary antibody and Phalloidin-633 (Invitrogen, Carlsbad, Calif., USA). Before imaging cell nuclei were stained using DAPI. […]

[8] = target: N-terminal Fn fragments (Homo sapiens, UniProt P02751); conditions: literature value, Meenan et al. 2007; read-out: Kd to N-terminal Fn fragments in solution; cited from earlier work
[9] = target: relaxed Fn fibers; assay: Displacement assay on manually pulled Fn fibers against FnBPA5-Alexa488; type: binding, human; conditions: cold labeled competitor
Method: Relaxed Fn fibers were incubated with FnBPA5-Alexa488 peptide, washed and then incubated with different concentrations of FnBPA5-In to measure the concentration of competitor.
To assess whether the presence of the chelator for the radiolabeled ^111In-isotope impairs FnBPA5 binding to manually pulled Fn fibers, a displacement assay was performed using ^natIn-FnBPA5 (cold labeled) against FnBPA5-Alexa488.

[10] = 96 hours post injection, 12 MBq, tail vein
[11] = 96 hours post injection, kidneys removed

Chain of manually pulled relaxed Fn fibers (fibrillar Fn) (P02751 32-290 limits assumed): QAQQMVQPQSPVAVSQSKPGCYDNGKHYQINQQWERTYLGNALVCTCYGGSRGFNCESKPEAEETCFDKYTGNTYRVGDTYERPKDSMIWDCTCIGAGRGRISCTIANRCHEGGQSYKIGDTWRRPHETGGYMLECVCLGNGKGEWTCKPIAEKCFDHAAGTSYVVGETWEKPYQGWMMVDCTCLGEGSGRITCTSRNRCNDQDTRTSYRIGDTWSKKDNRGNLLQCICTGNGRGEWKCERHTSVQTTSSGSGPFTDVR
Chain of soluble plasma Fn (P02751 32-290 limits assumed): as above
Chain of fibrillar Fn in fibroblast ECM (P02751 32-290 limits assumed): as above
Chain of relaxed Fn fibers (P02751 95-273 limits assumed): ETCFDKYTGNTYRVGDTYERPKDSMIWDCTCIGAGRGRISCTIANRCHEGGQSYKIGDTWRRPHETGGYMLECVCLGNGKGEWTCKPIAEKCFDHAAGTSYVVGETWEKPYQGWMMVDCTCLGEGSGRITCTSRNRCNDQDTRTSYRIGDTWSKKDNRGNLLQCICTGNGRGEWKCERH
Chain of N-terminal Fn fragments (P02751 52-272 limits assumed): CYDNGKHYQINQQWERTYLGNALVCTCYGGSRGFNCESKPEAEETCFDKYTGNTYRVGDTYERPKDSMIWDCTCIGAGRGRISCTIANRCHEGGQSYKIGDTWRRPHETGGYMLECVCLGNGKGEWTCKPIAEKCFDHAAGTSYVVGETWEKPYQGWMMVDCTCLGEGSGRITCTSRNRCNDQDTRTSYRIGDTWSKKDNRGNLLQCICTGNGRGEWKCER

Compound	SPECT/CT kidney uptake [2, 10]	SPECT/CT uptake in other organs after kidney removal [2, 11]	effect of pre-injection of unlabeled FnBPA5 on accumulation [4]	SPECT/CT kidney uptake ([2]; mouse, in vivo)	SPECT/CT uptake in other organs after kidney removal ([2]; mouse, in vivo)	Kd [5]	binding to manually pulled Fn fibers (peptide signal) [6]	binding to fibrillar Fn in fibroblast ECM [7]	further results
CC[C@H](C)[C@H](NC(=O)CNC(=O)[C@H](CCCCN)NC(=O)[C@@H](NC(=O)[C@H](CO)NC(=O)[C@H](CCC(=O)O)NC(=O)[C@H](CCC(=O)O)NC(=O)[C@H](CC(=O)O)NC(=O)[C@H](Cc1ccccc1)NC(=O)[C@H](CCC(=O)O)NC(=O)[C@@H](NC(=O)[C@H](CC(C)C)NC(=O)[C@H](CC(N)=O)NC(=O)[C@H](CO)NC(=O)[C@H](CCC(=O)O)NC(=O)[C@@H](NC(=O)[C@@H](NC(=O)[C@@H](NC(=O)[C@H](CCC(N)=O)NC(=O)CNC(=O)CNC(=O)CNC(=O)[C@@H](N)CSC1CC(=O)N(CCNC(=O)CCC(C(=O)O)N2CCN(CC(=O)O)CCN(CC(=O)O)CC2)C1=O)C(C)C)[C@@H](C)O)[C@@H](C)O)C(C)C)[C@@H](C)O)C(=O)N[C@H](C(=O)N[C@H](C(=O)NCC(=O)N[C@@H](C)C(=O)N[C@H](C(=O)N[C@@H](CO)C(=O)N[C@@H](CC(=O)O)C(=O)N[C@@H](Cc1c[nH]cn1)C(=O)N[C@H](C(=O)N[C@H](C(=O)N[C@H](C(=O)N[C@@H](CCC(=O)O)C(=O)N[C@@H](CC(=O)O)C(=O)N[C@H](C(=O)N[C@@H](CCCCN)C(=O)O)[C@@H](C)O)C(C)C)[C@@H](C)O)[C@@H](C)O)C(C)C)[C@@H](C)O)C(C)C (stereo partly drawn) [^111In-FnBPA5, metal not drawn] (H-C(X1)GGGQVTTESNLVEFDEESTKGIVTGAVSDHTTVEDTK-OH; N-terminus and C-terminus assumed)	mainly accumulated in the kidneys	predominant uptake in tumor and liver	significant reduction in the uptake of ^111In-FnBPA5 in both liver and tumor	–	–	–	–	–	plasma stability, peptide intact ([1]; human blood plasma, 37° C., after 72 hours): still intact; tissue uptake at 1 h ([3]; kidney accumulation, kidneys, 1 hour p.i. (maximum)): 141 ± 18.1 %ID/g; tissue uptake at 1 h ([3]; tumor uptake, PC-3 tumor, 1 h p.i. (maximum)): 4.74 ± 0.77 %ID/g; uptake decrease in liver by blocking ([4]; pre-injection of 100 μg unlabeled FnBPA5, 4 hour post-injection, liver): 58.2%; uptake decrease in tumor tissue by blocking ([4]; pre-injection of 100 μg unlabeled FnBPA5, 4 hour post-injection, tumor): 35.6%
CC[C@H](C)[C@H](NC(=O)[C@@H](NC(=O)[C@H](CCC(=O)O)NC(=O)CNC(=O)[C@H](Cc1ccccc1)NC(=O)[C@H](CC(=O)O)NC(=O)[C@@H](NC(=O)[C@H](CCCCN)NC(=O)[C@@H](NC(=O)CNC(=O)[C@@H](NC(=O)[C@H](CC(C)C)NC(=O)[C@H](CC(=O)O)NC(=O)[C@H](CCC(=O)O)NC(=O)[C@H](CCC(N)=O)NC(=O)[C@H](CCC(=O)O)NC(=O)[C@H](CO)NC(=O)CNC(=O)[C@@H](N)CSC1CC(=O)N(CCNC(=O)CCC(C(=O)O)N2CCN(CC(=O)O)CCN(CC(=O)O)CC2)C1=O)[C@@H](C)O)[C@@H](C)O)C(C)C)[C@@H](C)O)C(=O)N[C@H](C(=O)N[C@H](C(=O)N[C@@H](CC(N)=O)C(=O)N[C@@H](CCC(=O)O)C(=O)N[C@@H](C)C(=O)N[C@H](C(=O)N[C@@H](CCC(=O)O)C(=O)N[C@H](C(=O)N[C@H](C(=O)N[C@H](C(=O)N[C@@H](CO)C(=O)NCC(=O)N[C@@H](CO)C(=O)N[C@H](C(=O)N[C@@H](Cc1c[nH]cn1)C(=O)NCC(=O)N[C@H](C(=O)N[C@@H](CCCCN)C(=O)N[C@H](C(=O)O)C(C)C)[C@@H](C)O)[C@@H](C)O)[C@@H](C)O)C(C)C)[C@@H](C)O)[C@@H](C)O)C(C)C)C(C)C (stereo partly drawn) [^111In-scraFnBPA5, metal not drawn, reference compound] (H-C(X1)GSEQEDLTGTKVDFGETIVVNEATETVTSGSTHGTKV-OH; N-terminus and C-terminus assumed)	–	–	no significant differences	mainly accumulated in the kidneys	no uptake into other tissues was visible	–	–	–	tissue uptake at 1 h ([3]; kidney accumulation): 164 ± 18.9 %ID/g
Alexa 488-FnBPA5: FnBPA5 with N-terminal Alexa-488 dye ({Alexa 488}-CGGGQVTTESNLVEFDEESTKGIVTGAVSDHTTVEDTK)	–	–	–	–	–	75 nM	–	–	–
CGGGQVTTESNLVEFDEESTKGIVTGAVSDHTTVEDTK [FnBPA5]	dominant kidney uptake	uptake in tumors and liver	–	–	–	75 nM	specific peptide binding; also recorded: significantly higher binding; also recorded: much stronger than the scrambled control derivative	specific binding	Kd ([6]; relaxed fibers, 7% molecular strain, Alexa488-labelled peptide, Hill fit, read-out: dissociation constant Kd to manually pulled relaxed Fn fibers): 28 nM; plasma stability ([1]; 37° C., blood plasma and water, 1 hour time point): high stability; Kd [8]: 44.2 nM
^natIn-FnBPA5: Cold labeled (natural indium) chelator-conjugated FnBPA5 (C(NODAGA′)GGGQVTTESNLVEFDEESTKGIVTGAVSDHTTVEDTK; also: natural indium complexed by chelator)	–	–	–	–	–	–	–	–	IC50 [9]: 49 nM
scraFnBPA5: Negative control of FnBPA5 with scrambled sequence (SEQ ID NO 296) (CGSEQEDLTGTKVDFGETIVVNEATETVTSGSTHGTKV) [reference compound]	–	–	–	dominant kidney uptake	does not show any specific uptake in other organs	–	within the background noise	unspecificly attached to the matrix	plasma stability [1]: high stability
